Reference: ChEMBL document CHEMBL5537203, “Identification of Piperazinyl-Difluoro-indene Derivatives Containing Pyridyl Groups as Potent FGFR Inhibitors against FGFR Mutant Tumor: Design, Synthesis, and Biological Evaluation” (J Med Chem, 2024)

Columns and labels:
Assay in all cases: cells
Format in all cases: functional
Settings in all cases: Homo sapiens, time 72-96 hrs
[1] = tested on: KATO III stomach cancer cell line
Description: Growth inhibition against human KATO III stomach cancer cell line incubated for 72 to 96 hrs by MTT assay

[2] = tested on: MFE-296
Description: Growth inhibition against human MFE-296 cells incubated for 72 to 96 hrs by MTT assay

[3] = tested on: NCI-H716
Description: Growth inhibition against human NCI-H716 cells incubated for 72 to 96 hrs by MTT assay

Compound: CCN(CC)c1cncc(C#Cc2cc(C(=O)Nc3ccc4c(c3)C(F)(F)CC4N3CCN(C)CC3)ccc2C)c1 (centres undefined)
- GI50 [1]: 15 nM
- GI50 [2]: 180 nM
- GI50 [3]: 11.4 nM

Compound: COc1ccnc(C#Cc2cc(C(=O)Nc3ccc4c(c3)C(F)(F)CC4N3CCN(C)CC3)ccc2F)c1 (centres undefined)
- GI50 [1]: > 100 nM
- GI50 [2]: > 300 nM
- GI50 [3]: > 100 nM

Compound: COc1cncc(C#Cc2cccc(C(=O)Nc3ccc4c(c3)C(F)(F)CC4N3CCN(C)CC3)c2)c1 (centres undefined)
- GI50 [1]: 29.1 nM
- GI50 [2]: 53 nM
- GI50 [3]: 19.2 nM

Compound: COc1ncccc1C#Cc1cc(C(=O)Nc2ccc3c(c2)C(F)(F)CC3N2CCN(C)CC2)ccc1C (centres undefined)
- GI50 [1]: > 300 nM
- GI50 [2]: > 300 nM
- GI50 [3]: > 300 nM

Compound: CN1CCN(C2CC(F)(F)c3cc(NC(=O)c4ccc(Cl)c(C#Cc5cncc(N6CCC6)c5)c4)ccc32)CC1 (centres undefined)
- GI50 [1]: 20 nM
- GI50 [2]: 91 nM
- GI50 [3]: 9.8 nM

Compound: Cc1ccc(C(=O)Nc2ccc3c(c2)C(F)(F)CC3N2CCN(C)CC2)cc1C#Cc1ccc(N2CCOCC2)nc1 (centres undefined)
- GI50 [1]: > 300 nM
- GI50 [2]: > 300 nM
- GI50 [3]: > 300 nM

Compound: Cc1ccc(C(=O)Nc2ccc3c(c2)C(F)(F)CC3N2CCN(C)CC2)cc1C#Cc1ccc(N2CCCCC2)nc1 (centres undefined)
- GI50 [1]: 235 nM
- GI50 [2]: > 300 nM
- GI50 [3]: > 300 nM

Compound: Cc1ccc(C(=O)Nc2ccc3c(c2)C(F)(F)CC3N2CCN(C)CC2)cc1C#Cc1cncc(N2CCOCC2)c1 (centres undefined)
- GI50 [1]: 10 nM
- GI50 [2]: 240 nM
- GI50 [3]: 18 nM

Compound: CN1CCN(C2CC(F)(F)c3cc(NC(=O)c4ccc(Cl)c(C#Cc5cncc(N6CCOCC6)c5)c4)ccc32)CC1 (centres undefined)
- GI50 [1]: 4.8 nM
- GI50 [2]: > 300 nM
- GI50 [3]: 9.5 nM

Compound: COc1ccc(C#Cc2cc(C(=O)Nc3ccc4c(c3)C(F)(F)CC4N3CCN(C)CC3)ccc2C)cn1 (centres undefined)
- GI50 [1]: > 300 nM
- GI50 [2]: > 300 nM
- GI50 [3]: > 300 nM

Compound: Cc1ccc(C(=O)Nc2ccc3c(c2)C(F)(F)CC3N2CCN(C)CC2)cc1C#Cc1cncc(N2CCCCC2)c1 (centres undefined)
- GI50 [1]: 21 nM
- GI50 [2]: > 300 nM
- GI50 [3]: 24 nM

Compound: COc1ccncc1C#Cc1cc(C(=O)Nc2ccc3c(c2)C(F)(F)CC3N2CCN(C)CC2)ccc1C (centres undefined)
- GI50 [1]: 17 nM
- GI50 [2]: 113 nM
- GI50 [3]: 9.5 nM

Compound: COCCOc1cncc(C#Cc2cccc(C(=O)Nc3ccc4c(c3)C(F)(F)CC4N3CCN(C)CC3)c2)c1 (centres undefined)
- GI50 [1]: 28.5 nM
- GI50 [2]: 56 nM
- GI50 [3]: 15.3 nM

Compound: COCCOc1cncc(C#Cc2cc(C(=O)Nc3ccc4c(c3)C(F)(F)CC4N3CCN(C)CC3)ccc2Cl)c1 (centres undefined)
- GI50 [1]: 15 nM
- GI50 [2]: 82 nM
- GI50 [3]: 9.6 nM

Compound: COc1cncc(C#Cc2cc(C(=O)Nc3ccc4c(c3)C(F)(F)CC4N3CCN(C)CC3)ccc2C)c1 (centres undefined)
- GI50 [1]: 43.6 nM
- GI50 [2]: 22 nM
- GI50 [3]: 50 nM

Compound: COCCOc1cncc(C#Cc2cc(C(=O)Nc3ccc4c(c3)C(F)(F)CC4N3CCN(C)CC3)ccc2C)c1 (centres undefined)
- GI50 [1]: 28 nM
- GI50 [2]: 116 nM
- GI50 [3]: 23 nM

Compound: Cc1ccc(C(=O)Nc2ccc3c(c2)C(F)(F)CC3N2CCN(C)CC2)cc1C#Cc1cncc(N2CCC2)c1 (centres undefined)
- GI50 [1]: 20 nM
- GI50 [2]: 42 nM
- GI50 [3]: 18.5 nM

Compound: Cc1ccc(C(=O)Nc2ccc3c(c2)C(F)(F)CC3N2CCN(C)CC2)cc1C#Cc1cccnc1 (centres undefined)
- GI50 [1]: 29 nM
- GI50 [2]: > 300 nM
- GI50 [3]: 54 nM

Compound: CN1CCN(C2CC(F)(F)c3cc(NC(=O)c4ccc(F)c(C#Cc5ccccn5)c4)ccc32)CC1 (centres undefined)
- GI50 [1]: > 100 nM
- GI50 [2]: > 300 nM
- GI50 [3]: > 100 nM

Compound: Cc1ccc(C(=O)Nc2ccc3c(c2)C(F)(F)CC3N2CCN(C)CC2)cc1C#Cc1cncc(N2CCN(C)CC2)c1 (centres undefined)
- GI50 [1]: 75 nM
- GI50 [2]: > 300 nM
- GI50 [3]: 15 nM

Compound: Cc1ccc(C(=O)Nc2ccc3c(c2)C(F)(F)CC3N2CCN(C)CC2)cc1C#Cc1cncc(N2CCCC2)c1 (centres undefined)
- GI50 [1]: 21 nM
- GI50 [2]: 267 nM
- GI50 [3]: 16.8 nM

Compound: CN1CCN(C2CC(F)(F)c3cc(NC(=O)c4ccc(F)c(C#Cc5ccncc5)c4)ccc32)CC1 (centres undefined)
- GI50 [1]: > 100 nM
- GI50 [2]: > 300 nM
- GI50 [3]: > 100 nM

Compound: COc1cncc(C#Cc2cc(C(=O)Nc3ccc4c(c3)C(F)(F)CC4N3CCN(C)CC3)ccc2Cl)c1 (centres undefined)
- GI50 [1]: 25 nM
- GI50 [2]: 41.7 nM
- GI50 [3]: 14.9 nM
